Reference: patent US20130058930A1 (ANTARES PHARMA, INC., priority 2011, published 2013)
Where two headings read alike, the source gives them in different places.

Assays:
[1] = cited from earlier work; for average mean serum concentration: pediatric patients with juvenile rheumatoid arthritis
[2] = Three-period crossover relative bioavailability study of methotrexate injectable solutions (Vibex device SC vs needle and syringe SC and IM); format: in vivo, human; details: for AUC(0-inf) / Tmax / AUC(0-t) / Cmax / half-life: human, plasma, sc, subcutaneous with Vibex device
Procedure: This was a randomized, open-label, 3-way crossover study involving 36 subjects. During the screening period, 1 of 4 MTX dose groups (10 mg, 15 mg, 20 mg, or 25 mg) were selected by the investigator for each subject based on the subject's current MTX dose at the time of enrollment and disease status (controlled RA vs. uncontrolled RA). […] One of six treatment sequences was possible as determined by the randomization schedule.
A total of approximately 200 ml blood was obtained from each subject over the course of the study.
Immediately following collection of each sample, each tube was gently inverted and placed in ice. Within 30 minutes of sample collection, the tubes were centrifuged at about 2000×G for 15 minutes at approximately 4° C. in order to separate the cells from the plasma. No aids for separation were used. The plasma was transferred with clean pipettes and placed in two polypropylene storage tubes in equal volumes. The storage tubes were labeled with the following information: protocol number, subject number, period number, relative time of sample, and analyte. The label was taped with clear tape to assure adherence of the label. The storage tubes were placed in a freezer at […] or below until they analyzed.
Briefly, in an ice water bath, 100 μL of the human K2EDTA plasma sample was placed in a 2-ml centrifuge tube. 10 μL of working standard solution and 10 μL of internal standard were added to the tubes. Afterwards, […] of 30% formic acid in water was added to the tubes and 0.2 ml of cold precipitation solution (acetonitrile) was added, vortexed and centrifuged. The supernatant was transferred to a 96-well plate for LC/MS/MS analysis. A volume of approximately 5 μL of the sample was injected into an LC/MS/MS system. The LC/MS/MS analysis was carried out with a Sciex API-4000 mass spectrometer coupled with a Shimadzu LC system. […] Calibration curves and quality control samples were included in each run. The ranges of the assay for both analyses were from 1 ng/ml to 1000 ng/ml, and the limit of quantification for both analyses was 1 ng/ml.
Concentration values that were reported as below the limit of quantification (BLQ) were treated as 0 for computing mean concentrations and in the concentration-time graphs. […] Concentrations in plasma were used as reported; but measurable concentrations observed after obtaining a BLQ result were excluded from analysis.
The Linear Up Log Down method (equivalent to the Linear Up/Log Down option in WinNonlin® Professional) was used in the computation of AUCs. The linear trapezoidal method was employed for any area where the concentration data was increasing (or constant) and the logarithmic trapezoidal method for any area where the concentration data was decreasing. Interpolation of concentration values was conducted using the linear interpolation rule for any time point surrounded by points of increasing (or constant) concentrations and the logarithmic interpolation rule for any time point surrounded by points of decreasing concentrations.
Pharmacokinetic parameters were calculated from the individual concentrations of MTX using noncompartmental methods. […] Secondary PK parameters calculated for each treatment were the following: time of maximum concentration (t . . . ), half-life (tin), Lambda z, and percent of area under the curve extrapolated.
Comparisons among treatments were evaluated by a mixed model analysis of the log-transformed, dose-normalized values of Cmax, AUC(0-t), and AUC(0-inf) with sequence, treatment, and treatment period as fixed effects and subject nested within sequence as a random effect. Using these models, the least-squares (LS) mean for the above PK parameters of each treatment were determined. The differences in LS means among treatments and the 90% confidence intervals (CIs) for the differences in the log-scale LS means among treatment were also obtained.

AUC(0-inf) ([2]; 10 mg, 10 mg single dose): ~1160 ng·h/mL | Tmax ([2]; 10 mg, 10 mg single dose): 1.33 h | AUC(0-t) ([2]; 10 mg, 10 mg single dose, read-out: AUC(0-24)): ~1150 ng·h/mL | AUC(0-t) ([2]; 10 mg, 10 mg single dose, read-out: AUC(0-t)): ~1140 ng·h/mL | Cmax ([2]; 10 mg, 10 mg single dose, subjects with rheumatoid arthritis): ~213 ng/mL | AUC(0-inf) ([2]; 15 mg, 15 mg single dose): ~1980 ng·h/mL | Cmax ([2]; 15 mg, 15 mg single dose): ~356 ng/mL | Tmax ([2]; 15 mg, 15 mg single dose): ~1.25 h | half-life ([2]; 15 mg, 15 mg single dose): ~3.68 h | AUC(0-t) ([2]; 15 mg, 15 mg single dose, read-out: AUC(0-24)): ~1950 ng·h/mL | AUC(0-t) ([2]; 15 mg, 15 mg single dose, read-out: AUC(0-t)): ~1940 ng·h/mL | AUC(0-inf) ([2]; 20 mg, 20 mg single dose): ~2220 ng·h/mL | Cmax ([2]; 20 mg, 20 mg single dose): ~417 ng/mL | Tmax ([2]; 20 mg, 20 mg single dose): ~1.17 h | half-life ([2]; 20 mg, 20 mg single dose): ~3.58 h | AUC(0-t) ([2]; 20 mg, 20 mg single dose, read-out: AUC(0-24)): ~2190 ng·h/mL | AUC(0-t) ([2]; 20 mg, 20 mg single dose, read-out: AUC(0-t)): ~2190 ng·h/mL | AUC(0-inf) ([2]; 25 mg, 25 mg single dose): ~2840 ng·h/mL | Cmax ([2]; 25 mg, 25 mg single dose): ~491 ng/mL | Tmax ([2]; 25 mg, 25 mg single dose): ~1.23 h | half-life ([2]; 25 mg, 25 mg single dose): ~3.78 h | AUC(0-t) ([2]; 25 mg, 25 mg single dose, read-out: AUC(0-24)): ~2800 ng·h/mL | AUC(0-t) ([2]; 25 mg, 25 mg single dose, read-out: AUC(0-t)): ~2800 ng·h/mL
SMILES: CN(Cc1cnc2nc(N)nc(N)c2n1)c1ccc(C(=O)N[C@@H](CCC(=O)O)C(=O)O)cc1 [methotrexate, N-[4-[[(2,4-diamino-6-pteridinyl)methyl]methylamino]benzoyl]-L-glutamic acid]
initial average distribution volume ([1]; after intravenous administration): about 0.18 L/Kg | absorption from parenteral routes of injection ([1]; in vivo): completely absorbed | average mean serum concentration ([1]; at about 1 hour): about 0.59 μM | average mean serum concentration ([1]; at about 2 hours): about 0.44 μM | average mean serum concentration ([1]; at about 3 hours): about 0.29 μM | dose proportionality of observed plasma levels ([2]; single-dose administration, 10 mg to 25 mg dose range): increase linearly in a dose-proportionate manner
